# According to patent US9233143B2, “Medicinal agent for preventing exacerbation of malignant tumor, comprising combination of natriuretic peptide receptor GC-A and GC-B agonists” (National Cerebral and Cardiovascular Center, priority 2011, dated 2016):
# What was measured:
# [1] = system: cancer-associated fibroblasts (CAFs); assay: Changes in the intracellular cGMP level in response to natriuretic peptide stimulus, CAFs; type: cell-based, human; conditions: 1×10^−11 M to 1×10^−6 M, 10 minutes, FIG. 1B
# Experimental: For obtaining CAFs (cancer-associated fibroblasts), tissue harvested from a patient having lung cancer surgery was subjected to primary culture after the consent of the patient was obtained. The cells were then cultured in DMEM culture medium containing 10% FCS under 5% CO2 at 37° C., and the cells of the 5th and earlier passages were used.
# The A549 cells were cultured in a 24-well dish at 4×10^4 cells/well, and the culture medium was replaced with DMEM culture medium free from FCS the next day. The CAFs were cultured in a 24-well dish at 1×10^4 cells/well, and the culture medium was replaced with DMEM culture medium containing 1% FCS the next day.
# To these culture media, solutions of hANP, hBNP, and hCNP-22 (final concentration: ten-fold serial dilution from 1×10^−11 M to 1×10^−6 M, the same amount of physiological saline was used as a control) were separately added. After 10 minutes had passed, 400 μL of cooled 70% ethanol (containing 0.1 N hydrochloric acid) was added, and ultrasonication was performed for a short time. The treated solution was lyophilized, and the cGMP level was measured using Cyclic GMP Assay kit (made by Yamasa Corp.).
# [2] = system: CAFs; assay: Production of cancer exacerbation factors by CAFs under TGF-β1 stimulus (quantitative RT-PCR); type: cell-based, human; conditions: test substance 1 μM, TGF-β1 0.125-2.0 ng/mL, 24 hours, mRNA level, FIG. 5
# Experimental: Using a 6-well dish, the CAFs were cultured at 5×10^4 cells/well, and the culture medium was replaced with DMEM culture medium containing 1% FBS the next day. After 24 hours of culture, the cells were used in the following experiment.
# A CNP group (a hCNP-22 solution was added (final concentration: 1 μM)) and a control group (the same amount of physiological saline was added) were prepared, and after 2 hours from the addition (of the hCNP-22 solution or the physiological saline) to the CAFs, TGF-β1 was added so that the final concentration would be 0.125, 0.25, 0.5, 1.0, and 2.0 ng/mL. After 24 hours had passed, total RNA was recovered using TRIZOL total RNA isolation reagent, cDNA was synthesized using reverse transcriptase, and the mRNA levels of VEGF-A, TGF-β1, TNF-α, and IL-6 were measured by quantitative RT-PCR.
compound,measurement,setting,value
CC[C@H](C)[C@@H]1NC(=O)[C@H](CCCNC(=N)N)NC(=O)[C@H](CC(=O)O)NC(=O)[C@H](CCSC)NC(=O)[C@H](CCCNC(=N)N)NC(=O)CNC(=O)CNC(=O)[C@H](Cc2ccccc2)NC(=O)[C@@H](NC(=O)[C@H](CO)NC(=O)[C@H](CO)NC(=O)[C@H](CCCNC(=N)N)NC(=O)[C@H](CCCNC(=N)N)NC(=O)[C@H](CC(C)C)NC(=O)[C@@H](N)CO)CSSC[C@@H](C(=O)N[C@@H](CC(N)=O)C(=O)N[C@@H](CO)C(=O)N[C@@H](Cc2ccccc2)C(=O)N[C@@H](CCCNC(=N)N)C(=O)N[C@@H](Cc2ccc(O)cc2)C(=O)O)NC(=O)CNC(=O)[C@H](CC(C)C)NC(=O)CNC(=O)[C@H](CO)NC(=O)[C@H](CCC(N)=O)NC(=O)[C@H](C)NC(=O)CNC1=O [hANP],cGMP level of the CAFs,[1],did not show such an action
same,"gene expression of the growth factors (VEGF-A, TGF-β1) and the inflammatory cytokines (TNF-α, IL-6) increased by the TGF-β1 stimulus in CAFs",[2],did not show any effect on CAFs
